Like-named read-outs stand apart in the source and are kept apart here.
How the values were obtained:
[1] = system: mutant strain containing both the K103N and Y181C mutations; assay: Spread assay, mutant strain containing both K103N and Y181C; type: cell-based, HIV
Protocol: Assays for the inhibition of acute HIV-1 infection of T-lymphoid cells (alternatively referred to herein as the “spread assay”) were conducted in accordance with Vacca, J. P. et al., Proc. Natl. Acad. Sci. USA 1994, 91: 4096. The assays (using 10% FBS) tested for inhibition of wild type HIV-1 and of HIV strains containing the Y181C or K103N mutation. […] (Note that the compound of Example 6 was tested only up to a 833 nM concentration and the CIC95 value was determined to be >833 nM. The compound of Example 78 was not tested in the Y1818C assay.) The compounds of Examples 1 to 119 (including Examples 70A and 70B) had CIC95 values of less than 1000 nanomolar in the assay employing the K103N mutant strain. In an analogous assay employing a mutant strain containing both the K103N and Y181C mutations, the compounds of Examples 70A, 70B and 78-115 had CIC95 values of less than 1000 nanomolar.

[2] = system: HIV strain containing the Y181C mutation; assay: Spread assay, Y181C mutant strain; type: cell-based
How it was run: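 Acute HIV-1 infection of T-lymphoid cells run in the presence of 10% FBS, […]; potency expressed as CIC95.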

[3] = Human immunodeficiency virus 1, analogous spread assay, K103N and Y181C double mutant strain, read-out: CIC95
[4] = Human immunodeficiency virus 1, spread assay, 10% FBS, Y181C mutant strain, read-out: CIC95
[5] = Human immunodeficiency virus 1, read-out: CIC95

SMILES | IC95 [1, 3] [µM] | IC95 [2, 4] [µM] | IC95 [1, 5] [µM] | IC95 [2, 5] [µM]
COc1ccc2c(c1)CCCN(C(=O)c1[nH]c(C(N)=O)c(S(=O)(=O)c3cc(Cl)cc(Cl)c3)c1C)C2 [Example 85, 3-[(3,5-dichlorophenyl)sulfonyl]-4-methyl-5-(7-methoxy-1,3,4,5-tetrahydro-2H-2-benzazepin-2-ylcarbonyl)-1H-pyrrole-2-carboxamide] | < 1 | < 8 | – | –
COc1ccc2c(c1)CN(C(=O)c1[nH]c(C(N)=O)c(S(=O)(=O)c3cc(C)cc(C)c3)c1C)CCC2 [Example 89, 3-[(3,5-dimethylphenyl)sulfonyl]-4-methyl-5-(8-methoxy-1,3,4,5-tetrahydro-2H-2-benzazepin-2-ylcarbonyl)-1H-pyrrole-2-carboxamide] | < 1 | < 8 | – | –
CC(C)c1c(C(=O)N(C)Cc2ccncc2Cl)[nH]c(C(N)=O)c1S(=O)(=O)c1ccccc1 [Example 106, N2-[(3-chloropyridin-4-yl)methyl]-3-isopropyl-N2-methyl-4-(phenylsulfonyl)-1H-pyrrole-2,5-dicarboxamide] | < 1 | < 8 | – | –
CC(C)c1c(C(=O)N(C)Cc2cc(N)ncc2F)[nH]c(C(N)=O)c1S(=O)(=O)c1ccccc1 [Example 104] | < 1 | < 8 | – | –
CC(C)c1c(C(=O)N(C)Cc2cc3cccnc3cc2Cl)[nH]c(C(N)=O)c1S(=O)(=O)c1ccccc1 [Example 70B, 3-isopropyl-N-methyl-4-(phenylsulfonyl)-N-[(7-chloroquinolin-6-yl)methyl]-1H-pyrrole-2,5-dicarboxamide] | – | – | < 1 | < 8
Cc1c(C(=O)N2CCCc3ccccc3C2)[nH]c(C(N)=O)c1S(=O)(=O)c1cc(Cl)cc(Cl)c1 [Example 83, 3-[(3,5-dichlorophenyl)sulfonyl]-4-methyl-5-(1,3,4,5-tetrahydro-2H-2-benzazepin-2-ylcarbonyl)-1H-pyrrole-2-carboxamide] | < 1 | < 8 | – | –
Cc1cc(C)cc(S(=O)(=O)c2c(C(N)=O)[nH]c(C(=O)N3CCCc4ccc(O)cc4C3)c2C)c1 [Example 90, 3-[(3,5-dimethylphenyl)sulfonyl]-4-methyl-5-(8-hydroxy-1,3,4,5-tetrahydro-2H-2-benzazepin-2-ylcarbonyl)-1H-pyrrole-2-carboxamide] | < 1 | < 8 | – | –
COc1ccc2c(c1)CN(C(=O)c1[nH]c(C(N)=O)c(S(=O)(=O)c3cc(Cl)cc(Cl)c3)c1C)CCC2 [Example 81, 3-[(3,5-dichlorophenyl)sulfonyl]-4-methyl-5-(8-methoxy-1,3,4,5-tetrahydro-2H-2-benzazepin-2-ylcarbonyl)-1H-pyrrole-2-carboxamide] | < 1 | < 8 | – | –
Cc1cc(C)cc(S(=O)(=O)c2c(C(N)=O)[nH]c(C(=O)N3CCCc4sc(S(C)(=O)=O)cc4C3)c2C)c1 [Example 98, 3-[(3,5-Dimethylphenyl)sulfonyl]-4-methyl-5-[(2-(methylsulfonyl)-4,6,7,8-tetrahydro-5H-thieno[3,2-c]azepin-5-yl)carbonyl]-1H-pyrrole-2-carboxamide] | < 1 | < 8 | – | –
Cc1c(C(=O)N2CCCc3sc(S(C)(=O)=O)cc3C2)[nH]c(C(N)=O)c1S(=O)(=O)c1cc(Cl)cc(Cl)c1 [Example 97] | < 1 | < 8 | – | –
Cc1cc(C)cc(S(=O)(=O)c2c(C(N)=O)[nH]c(C(=O)N3CCCc4cc(O)ccc4C3)c2C)c1 [Example 88, 3-[(3,5-dimethylphenyl)sulfonyl]-4-methyl-5-(7-hydroxy-1,3,4,5-tetrahydro-2H-2-benzazepin-2-ylcarbonyl)-1H-pyrrole-2-carboxamide] | < 1 | < 8 | – | –
Cc1cc(C)cc(S(=O)(=O)c2c(C(N)=O)[nH]c(C(=O)N(C)Cc3ccncc3F)c2C)c1 [Example 109, 3-[(3,5-dimethylphenyl)sulfonyl]-N5-[(3-fluoropyridin-4-yl)methyl]-N5,4-dimethyl-1H-pyrrole-2,5-dicarboxamide] | < 1 | < 8 | – | –
Cc1cc(C)cc(S(=O)(=O)c2c(C(N)=O)[nH]c(C(=O)N(C)Cc3ccnc(N)c3)c2C(C)C)c1 [Example 102, N5-[(2-aminopyridin-4-yl)methyl]-3-[(3,5-dimethylphenyl)sulfonyl]-4-isopropyl-N5-methyl-1H-pyrrole-2,5-dicarboxamide] | < 1 | < 8 | – | –
Cc1c(C(=O)N2CCCc3ccc(O)cc3C2)[nH]c(C(N)=O)c1S(=O)(=O)c1cc(Cl)cc(Cl)c1 [Example 82, 3-[(3,5-dichlorophenyl)sulfonyl]-4-methyl-5-(8-hydroxy-1,3,4,5-tetrahydro-2H-2-benzazepin-2-ylcarbonyl)-1H-pyrrole-2-carboxamide] | < 1 | < 8 | – | –
Cc1cc(C)cc(S(=O)(=O)c2c(C(N)=O)[nH]c(C(=O)N(C)Cc3cc(Cl)ncc3F)c2C)c1 [Example 113, N5-[(2-chloro-5-fluoropyridin-4-yl)methyl]-3-[(3,5-dimethylphenyl)sulfonyl]-N5,4-dimethyl-1H-pyrrole-2,5-dicarboxamide] | < 1 | < 8 | – | –
Cc1c(C(=O)N2CCCc3ccc(O)cc3C2)[nH]c(C(N)=O)c1S(=O)(=O)c1ccccc1 [Example 92, 3-(phenylsulfonyl)-4-methyl-5-(8-hydroxy-1,3,4,5-tetrahydro-2H-2-benzazepin-2-ylcarbonyl)-1H-pyrrole-2-carboxamide] | < 1 | < 8 | – | –
CC(C)c1c(C(=O)N(C)Cc2ccncc2F)[nH]c(C(N)=O)c1S(=O)(=O)c1ccccc1 [Example 110, N2-[(3-fluoropyridin-4-yl)methyl]-3-isopropyl-N2-methyl-4-(phenylsulfonyl)-1H-pyrrole-2,5-dicarboxamide] | < 1 | < 8 | – | –
CC(C)c1c(C(=O)N(C)Cc2ccc3ncccc3c2Cl)[nH]c(C(N)=O)c1S(=O)(=O)c1ccccc1 [Example 70A, 3-isopropyl-N-methyl-4-(phenylsulfonyl)-N-[(5-chloroquinolin-6-yl)methyl]-1H-pyrrole-2,5-dicarboxamide] | – | – | < 1 | < 8
CC(C)c1c(C(=O)N(C)Cc2ccnc(N)c2F)[nH]c(C(N)=O)c1S(=O)(=O)c1ccccc1 [Example 115, N2-[(2-amino-3-fluoropyridin-4-yl)methyl]-3-isopropyl-N2-methyl-4-(phenylsulfonyl)-1H-pyrrole-2,5-dicarboxamide] | < 1 | < 8 | – | –
CC(C)c1c(C(=O)N(C)Cc2ccnc(N)c2)[nH]c(C(N)=O)c1S(=O)(=O)c1cccc(F)c1 [Example 99, N5-[(2-aminopyridin-4-yl)methyl]-3-[(3-fluorophenyl)sulfonyl]-4-isopropyl-N5-methyl-1H-pyrrole-2,5-dicarboxamide] | < 1 | < 8 | – | –
Cc1c(C(=O)N2CCCc3ccc(O)cc3C2)[nH]c(C(N)=O)c1S(=O)(=O)c1cccc(F)c1 [Example 94, 3-[(3-fluorophenyl)sulfonyl]-4-methyl-5-(8-hydroxy-1,3,4,5-tetrahydro-2H-2-benzazepin-2-ylcarbonyl)-1H-pyrrole-2-carboxamide] | < 1 | < 8 | – | –
COc1ccc2c(c1)CN(C(=O)c1[nH]c(C(N)=O)c(S(=O)(=O)c3cccc(C(F)(F)F)c3)c1C)CCC2 [Example 95, 3-[(3-(1,1,1-trifluoromethyl)phenyl)sulfonyl]-4-methyl-5-(8-methoxy-1,3,4,5-tetrahydro-2H-2-benzazepin-2-ylcarbonyl)-1H-pyrrole-2-carboxamide] | < 1 | < 8 | – | –
CC(C)c1c(C(=O)N(C)Cc2cc(Cl)ncc2F)[nH]c(C(N)=O)c1S(=O)(=O)c1ccccc1 [Example 114, N2-[(2-chloro-5-fluoropyridin-4-yl)methyl]-3-isopropyl-N2-methyl-4-(phenylsulfonyl)-1H-pyrrole-2,5-dicarboxamide] | < 1 | < 8 | – | –
Cc1cc(C)cc(S(=O)(=O)c2c(C(N)=O)[nH]c(C(=O)N3CCCc4ccccc4C3)c2C)c1 [Example 79, 4-Methyl-3-(3,5-dimethylphenylsulfonyl)-5-(1,3,4,5-tetrahydro-2H-2-benzazepine-2-ylcarbonyl)-1H-pyrrole-2-carboxamide] | < 1 | < 8 | – | –
COc1ccc2c(c1)CCCN(C(=O)c1[nH]c(C(N)=O)c(S(=O)(=O)c3cc(C)cc(C)c3)c1C)C2 [Example 87, 3-[(3,5-dimethylphenyl)sulfonyl]-4-methyl-5-(7-methoxy-1,3,4,5-tetrahydro-2H-2-benzazepin-2-ylcarbonyl)-1H-pyrrole-2-carboxamide] | < 1 | < 8 | – | –
COc1ccc2c(c1)CN(C(=O)c1[nH]c(C(N)=O)c(S(=O)(=O)c3cccc(F)c3)c1C)CCC2 [Example 93, 3-[(3-fluorophenyl)sulfonyl]-4-methyl-5-(8-methoxy-1,3,4,5-tetrahydro-2H-2-benzazepin-2-ylcarbonyl)-1H-pyrrole-2-carboxamide] | < 1 | < 8 | – | –
CC(C)c1c(C(=O)N(C)Cc2c(F)cncc2F)[nH]c(C(N)=O)c1S(=O)(=O)c1ccccc1 [Example 112, N2-[(3,5-difluoropyridin-4-yl)methyl]-3-isopropyl-N2-methyl-4-(phenylsulfonyl)-1H-pyrrole-2,5-dicarboxamide] | < 1 | < 8 | – | –
